Columns and labels:
Assay type in all cases: biochemical
ROCK2 [1] = molecular target: T1, ROCK2 (Homo sapiens, UniProt O75116); assay: In vitro Rho kinase inhibitory activity assay, ADP-Glo, Method A (ATP 10 μM); conditions: read-out: Method A ROCK 2 (Ki)
Protocol: (§1) In Vitro Inhibitory Activity Assay Description (Method A)
(§2) The effectiveness of compounds of the present invention to inhibit Rho kinase activity can be determined in a 10 μL assay containing 40 mM Tris pH7.5, 20 mM MgCl2 0.1 mg/mL BSA, 50 μM DTT and 2.5 μM peptide substrate (Myelin Basic Protein) using an ADP-Glo kit (Promega). Compounds were dissolved in DMSO such that the final concentration of DMSO was 1% in the assay. All reactions/incubations are performed at 25° C. Compound (2 μL) and either Rho kinase 1 or 2 (4 μL) were mixed and incubated for 30 min. Reactions were initiated by addition of ATP (4 μL) such that the final concentration of ATP in the assay was 10 μM. After a 1 hour incubation 10 μL of ADP-Glo Reagent was added and after a further 45 minute incubation 20 μL of Kinase Detection Buffer was added and the mixture incubated for a further 30 minutes. The luminescent signal was measured on a luminometer. […] Compounds were tested in dose-response format and the inhibition of kinase activity was calculated at each concentration of compound. To determine the IC50 (concentration of compound required to inhibit 50% of the enzyme activity) data were fit to a plot of % inhibition vs Log10 compound concentration using a sigmoidal fit with a variable slope and fixing the maximum to 100% and the minimum to 0%. To determine the Ki values the Cheng-Prusoff equation was utilized (Ki=IC50/(1+[S]/Km).

ROCK1 [2] = molecular target: T2, ROCK1 (Homo sapiens, UniProt Q13464); assay: as above; conditions: read-out: Method A ROCK 1 (Ki)
Protocol: as §1, §2

ROCK2 [3] = molecular target: T1, ROCK2; assay: In vitro Rho kinase inhibitory activity assay, ADP-Glo, Method B (ATP 200 μM); conditions: read-out: Method B ROCK 2 (Ki)
Protocol: (§3) In Vitro Inhibitory Activity Assay Description (Method B)
as §2, with “(2 ul)” for “(2 μL)”, “was 200” for “was 10”, “20 ul” for “20 μL”, “vs Log 10” for “vs Log10”

ROCK1 [4] = molecular target: T2, ROCK1; assay: as above; conditions: read-out: Method B ROCK 1 (Ki)
Protocol: as §3
as §2, with “(2 ul)” for “(2 μL)”, “was 200” for “was 10”, “20 ul” for “20 μL”, “vs Log 10” for “vs Log10”

PKA = PKA (Homo sapiens, UniProt P17612); assay: In vitro inhibitory activity assay for PKA, ADP-Glo, reported as selectivity ratio vs ROCK2; conditions: Ki for PKA divided by Ki of ROCK2 (Method B)
Protocol: In Vitro Inhibitory Activity Assay Description for PKA
The effectiveness of compounds of the present invention to inhibit PKA activity can be determined in a 10 μL assay containing 40 mM Tris pH7.5, 20 mM MgCl2 0.1 mg/mL BSA, 50 μM DTT and 260 μM peptide substrate (kemptide) using an ADP-Glo kit (Promega). Compounds were dissolved in DMSO such that the final concentration of DMSO was 1% in the assay. All reactions/incubations are performed at 25° C. Compound and PKA enzyme (6 μL) were mixed and incubated for 30 min. Reactions were initiated by addition of ATP (4 μL) such that the final concentration of ATP in the assay was 10 μM. After a 30 minute incubation 10 μL of ADP-Glo Reagent was added and after a further 1 hour incubation 20 μL of Kinase Detection Buffer was added and the mixture incubated for a further 45 minutes. The luminescent signal was measured on a luminometer. […] Compounds were tested in dose-response format and the inhibition of kinase activity was calculated at each concentration of compound. To determine the IC50 (concentration of compound required to inhibit 50% of the enzyme activity) data were fit to a plot of % inhibition vs Log10 compound concentration using a sigmoidal fit with a variable slope and fixing the maximum to 100% and the minimum to 0%. To determine the Ki values the Cheng-Prusoff equation was utilized (Ki=IC50/(1+[S]/Km).
In vitro inhibitory activities for PKA were reported as selectivity ratio vs. ROCK2. Selectivity ratio PKA/ROCK2 was calculated by dividing the Ki value for PKA by Ki value of ROCK2 (Method B) and reported into table 1.

T1 sequence (O75116 whole entry): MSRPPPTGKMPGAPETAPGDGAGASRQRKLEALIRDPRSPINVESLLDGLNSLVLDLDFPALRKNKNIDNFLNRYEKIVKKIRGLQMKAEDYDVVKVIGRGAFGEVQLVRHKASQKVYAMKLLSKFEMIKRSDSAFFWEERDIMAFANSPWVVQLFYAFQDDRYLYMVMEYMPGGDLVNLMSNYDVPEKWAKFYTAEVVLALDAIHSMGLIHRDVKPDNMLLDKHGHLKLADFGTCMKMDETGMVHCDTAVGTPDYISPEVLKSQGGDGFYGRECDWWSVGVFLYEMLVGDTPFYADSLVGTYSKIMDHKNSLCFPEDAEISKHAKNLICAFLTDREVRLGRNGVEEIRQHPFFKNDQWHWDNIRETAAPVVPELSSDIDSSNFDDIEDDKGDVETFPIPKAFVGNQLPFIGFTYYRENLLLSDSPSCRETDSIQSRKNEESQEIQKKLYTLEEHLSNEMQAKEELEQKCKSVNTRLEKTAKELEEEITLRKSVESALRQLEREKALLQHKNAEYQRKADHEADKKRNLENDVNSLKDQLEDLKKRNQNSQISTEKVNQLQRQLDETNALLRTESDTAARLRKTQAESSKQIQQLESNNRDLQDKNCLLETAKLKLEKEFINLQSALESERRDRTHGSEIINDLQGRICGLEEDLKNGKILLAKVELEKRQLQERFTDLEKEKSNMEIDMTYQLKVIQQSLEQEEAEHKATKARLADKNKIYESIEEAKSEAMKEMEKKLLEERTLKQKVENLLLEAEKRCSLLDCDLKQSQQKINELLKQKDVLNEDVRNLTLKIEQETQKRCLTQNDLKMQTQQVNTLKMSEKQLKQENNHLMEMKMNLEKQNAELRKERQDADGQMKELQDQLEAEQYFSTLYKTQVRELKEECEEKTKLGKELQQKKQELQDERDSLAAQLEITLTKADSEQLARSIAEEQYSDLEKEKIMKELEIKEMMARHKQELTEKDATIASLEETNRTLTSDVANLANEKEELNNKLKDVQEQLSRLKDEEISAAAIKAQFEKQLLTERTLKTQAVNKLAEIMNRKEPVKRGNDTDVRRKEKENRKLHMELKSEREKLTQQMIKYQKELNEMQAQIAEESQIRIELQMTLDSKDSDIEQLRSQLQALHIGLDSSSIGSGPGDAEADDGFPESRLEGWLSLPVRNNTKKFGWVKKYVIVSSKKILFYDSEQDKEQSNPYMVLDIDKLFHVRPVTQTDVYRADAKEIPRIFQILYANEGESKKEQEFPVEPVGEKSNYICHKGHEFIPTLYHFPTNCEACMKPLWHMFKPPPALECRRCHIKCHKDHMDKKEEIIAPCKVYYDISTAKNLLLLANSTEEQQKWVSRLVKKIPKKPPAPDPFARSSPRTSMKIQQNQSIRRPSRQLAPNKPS
T2 sequence (Q13464 whole entry): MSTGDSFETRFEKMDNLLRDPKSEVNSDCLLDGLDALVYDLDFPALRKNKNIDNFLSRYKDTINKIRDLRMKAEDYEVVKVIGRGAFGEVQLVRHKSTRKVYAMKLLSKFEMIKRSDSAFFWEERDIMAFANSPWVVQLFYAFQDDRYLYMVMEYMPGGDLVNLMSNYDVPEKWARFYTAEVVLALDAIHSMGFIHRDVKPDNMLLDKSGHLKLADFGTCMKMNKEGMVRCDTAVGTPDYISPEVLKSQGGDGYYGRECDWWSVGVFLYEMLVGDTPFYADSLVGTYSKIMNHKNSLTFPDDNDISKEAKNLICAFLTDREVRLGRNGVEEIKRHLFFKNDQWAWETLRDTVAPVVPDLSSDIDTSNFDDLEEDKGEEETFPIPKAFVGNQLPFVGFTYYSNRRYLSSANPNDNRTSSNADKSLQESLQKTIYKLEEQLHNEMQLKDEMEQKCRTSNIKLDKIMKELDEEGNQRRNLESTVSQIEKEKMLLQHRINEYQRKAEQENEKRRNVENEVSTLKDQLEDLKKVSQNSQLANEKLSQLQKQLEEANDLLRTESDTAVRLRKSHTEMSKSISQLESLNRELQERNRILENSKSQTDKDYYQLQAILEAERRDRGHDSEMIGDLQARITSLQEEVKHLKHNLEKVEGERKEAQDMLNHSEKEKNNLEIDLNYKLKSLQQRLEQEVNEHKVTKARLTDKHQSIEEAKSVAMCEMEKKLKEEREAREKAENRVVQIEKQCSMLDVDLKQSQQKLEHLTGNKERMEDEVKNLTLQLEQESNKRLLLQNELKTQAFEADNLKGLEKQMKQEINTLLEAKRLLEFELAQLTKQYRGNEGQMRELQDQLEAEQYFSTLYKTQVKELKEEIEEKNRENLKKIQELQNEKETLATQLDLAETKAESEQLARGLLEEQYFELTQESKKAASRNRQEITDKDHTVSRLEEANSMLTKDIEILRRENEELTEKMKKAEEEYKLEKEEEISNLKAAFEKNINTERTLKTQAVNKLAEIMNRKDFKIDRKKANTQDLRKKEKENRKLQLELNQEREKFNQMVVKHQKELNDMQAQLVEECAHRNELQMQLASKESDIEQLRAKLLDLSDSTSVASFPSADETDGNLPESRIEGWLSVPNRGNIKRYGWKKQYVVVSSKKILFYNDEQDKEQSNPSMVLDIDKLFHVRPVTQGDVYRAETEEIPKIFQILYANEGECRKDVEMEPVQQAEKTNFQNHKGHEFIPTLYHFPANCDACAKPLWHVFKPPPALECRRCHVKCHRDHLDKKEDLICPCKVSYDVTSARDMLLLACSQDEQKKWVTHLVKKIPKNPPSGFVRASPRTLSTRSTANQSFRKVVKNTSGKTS

SMILES	Ki (ROCK2 [1])	Ki (ROCK1 [2])	Ki (ROCK2 [3])	Ki (ROCK1 [4])	Ratio (PKA/ROCK2) (PKA)
O=C(Nc1ncc(CN2CCCC2)s1)c1cccc(CNc2ncc(-c3ccncc3)c3c2CCO3)c1 [Example 1, 3-(((7-(Pyridin-4-yl)-2,3-dihydrofuro[3,2-c]pyridin-4-yl)amino)methyl)-N-(5-(pyrrolidin-1-ylmethyl)thiazol-2-yl)benzamide]	≤ 3 nM	≤ 3 nM	≤ 3 nM	≤ 3 nM	
CN1CCn2nc(NC(=O)c3cccc(CNc4ncc(-c5ccncc5)c5c4CCO5)c3)cc2C1 [Example 21]	≤ 3 nM	≤ 3 nM	≤ 3 nM	≤ 3 nM	
CN1CCC(CCNC(=O)c2cccc(CNc3ncc(-c4ccncc4)c4c3CCO4)c2)CC1 [Example 22, N-(2-(1-methylpiperidin-4-yl)ethyl)-3-(((7-(pyridin-4-yl)-2,3-dihydrofuro[3,2-c]pyridin-4-yl)amino)methyl)benzamide]	≤ 3 nM	≤ 3 nM	≤ 3 nM	≤ 3 nM	*** (ratio≥10)
CN1CCN(CCCC(=O)Nc2cccc(CNc3ncc(-c4ccncc4)c4c3CCO4)c2)CC1 [Example 35, 4-(4-methylpiperazin-1-yl)-N-(3-(((7-(pyridin-4-yl)-2,3-dihydrofuro[3,2-c]pyridin-4-yl)amino)methyl)phenyl)butanamide]	≤ 3 nM	≤ 3 nM	≤ 3 nM	≤ 3 nM	*** (ratio≥10)
O=C(Nc1cccc(CNc2ncc(-c3ccncc3)c3c2CCO3)c1)c1ccc(CN2CCOCC2)cc1 [Example 36, 4-(morpholinomethyl)-N-(3-(((7-(pyridin-4-yl)-2,3-dihydrofuro[3,2-c]pyridin-4-yl)amino)methyl)phenyl)benzamide]	≤ 3 nM	≤ 3 nM	≤ 3 nM	≤ 3 nM	*** (ratio≥10)
c1ccc(CNc2ncc(-c3ccncc3)c3c2CCO3)cc1 [Example A, N-Benzyl-7-(pyridin-4-yl)-2,3-dihydrofuro[3,2-c]pyridin-4-amine, reference compound]	> 30 nM	> 30 nM	> 30 nM	> 30 nM	* (ratio<5)

The next lines start with the values.

Ki (ROCK2 [1])	Ki (ROCK1 [2])	Ki (ROCK2 [3])	Ki (ROCK1 [4])	Ratio (PKA/ROCK2) (PKA)	SMILES
3 to 30 nM	3 to 30 nM	3 to 30 nM	3 to 30 nM	*** (ratio≥10)	CNC(=O)c1cccc(CNc2ncc(-c3ccncc3)c3c2CCO3)c1 [Example 20, N-methyl-3-(((7-(pyridin-4-yl)-2,3-dihydrofuro[3,2-c]pyridin-4-yl)amino)methyl)benzamide]
≤ 3 nM	≤ 3 nM	3 to 30 nM	3 to 30 nM	*** (ratio≥10)	O=C(NCCN1CCOCC1)c1cccc(CNc2ncc(-c3ccncc3)c3c2CCO3)c1 [Example 28, N-(2-morpholinoethyl)-3-(((7-(pyridin-4-yl)-2,3-dihydrofuro[3,2-c]pyridin-4-yl)amino)methyl)benzamide]
≤ 3 nM	≤ 3 nM	3 to 30 nM	3 to 30 nM	*** (ratio≥10)	O=C(NCCN1CCCCC1)c1cccc(CNc2ncc(-c3ccncc3)c3c2CCO3)c1 [Example 30, N-(2-(piperidin-1-yl)ethyl)-3-(((7-(pyridin-4-yl)-2,3-dihydrofuro[3,2-c]pyridin-4-yl)amino)methyl)benzamide]
≤ 3 nM	≤ 3 nM	≤ 3 nM	≤ 3 nM	*** (ratio≥10)	CN1CCc2sc(C(=O)Nc3cccc(CNc4ncc(-c5ccncc5)c5c4CCO5)c3)nc2C1 [Example 54, 5-methyl-N-(3-(((7-(pyridin-4-yl)-2,3-dihydrofuro[3,2-c]pyridin-4-yl)amino)methyl)phenyl)-4,5,6,7-tetrahydrothiazolo[4,5-c]pyridine-2-carboxamide]
